{
  "source": "paper PMC2225448",
  "about": "(Structure(London, England:1993), 2007)",
  "biological_target": "T1, SOCS4/ElonginBC (Homo sapiens, UniProt Q15369+Q15370+Q8WXH5)",
  "T1 construct": "Human SOCS4 (amino acids 274–437); made in house; host or cells: E. coli BL21(DE3)",
  "T1 sequence (Q8WXH5 274-437)": "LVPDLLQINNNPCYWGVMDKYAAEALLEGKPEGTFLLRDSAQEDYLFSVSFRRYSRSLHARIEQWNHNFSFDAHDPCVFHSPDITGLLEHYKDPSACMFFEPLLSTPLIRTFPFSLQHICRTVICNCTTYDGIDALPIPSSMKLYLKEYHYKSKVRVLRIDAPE",
  "T1 sequence (Q15369 17-112 partner limits assumed)": "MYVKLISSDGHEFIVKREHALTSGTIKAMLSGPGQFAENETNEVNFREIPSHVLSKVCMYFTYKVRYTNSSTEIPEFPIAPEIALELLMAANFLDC",
  "T1 sequence (Q15370 whole entry partner, the tested form may be a part)": "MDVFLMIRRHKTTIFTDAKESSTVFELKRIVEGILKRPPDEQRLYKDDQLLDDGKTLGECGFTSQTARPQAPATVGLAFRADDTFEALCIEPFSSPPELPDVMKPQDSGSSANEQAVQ",
  "experiment": "ITC binding of phosphotyrosine peptides to SOCS4/ElonginBC",
  "conditions": "50 mM HEPES pH 7.5, 150 mM NaCl, 1 mM DTT, 20°C; for KB × 10^5: association constant, ± curve fitting error",
  "key": {"[1]": {"conditions": "0.3–0.4 mM peptide injected into 15 μM protein, single binding site model"}},
  "source_text": "Blank titrations were subtracted from binding data, and data were processed by using ORIGIN software provided with the instrument.",
  "data": [
    {"smiles": "CC[C@H](C)[C@H](NC(=O)[C@H](Cc1ccc(O)cc1)NC(=O)[C@@H](NC(=O)[C@H](Cc1ccc(OP(=O)(O)O)cc1)NC(=O)[C@H](CC(N)=O)NC(=O)[C@H](CC(N)=O)NC(=O)CNC(=O)[C@@H](N)CC(N)=O)C(C)C)C(=O)N[C@@H](CC(=O)O)C(=O)N1CCC[C@H]1C(=O)N[C@H](C(=O)O)[C@@H](C)O", "note": "[KIT pY568]", "values": [
      {"measurement": "KB × 10^5", "result": "3.43 ± 0.24 10^5 M^−1"}
    ]},
    {"smiles": "CC[C@H](C)[C@H](NC(=O)[C@@H](NC(=O)[C@H](Cc1ccc(OP(=O)(O)O)cc1)NC(=O)[C@H](CCC(=O)O)NC(=O)[C@H](Cc1ccccc1)NC(=O)[C@H](CO)NC(=O)[C@H](C)N)[C@@H](C)O)C(=O)N[C@@H](CC(C)C)C(=O)N[C@@H](CC(=O)O)C(=O)N1CCC[C@H]1C(=O)N[C@@H](CO)C(=O)O", "note": "[EpoR pY402]", "values": [
      {"measurement": "KB × 10^5", "result": "1.30 ± 0.16 10^5 M^−1"}
    ]},
    {"smiles": "CC(C)[C@H](NC(=O)[C@H](CCCCN)NC(=O)[C@H](Cc1ccc(O)cc1)NC(=O)[C@H](Cc1ccc(OP(=O)(O)O)cc1)NC(=O)[C@H](CCC(=O)O)NC(=O)[C@H](CCCCN)NC(=O)[C@H](CC(=O)O)NC(=O)[C@@H](N)CCC(N)=O)C(=O)N[C@@H](CCCCN)C(=O)N[C@@H](CCC(=O)O)C(=O)N1CCC[C@H]1C(=O)NCC(=O)O", "note": "[JAK2 pY1007]", "values": [
      {"measurement": "KD", "setting": "[1]", "result": "low micromolar"},
      {"measurement": "Kd", "setting": "[1]", "result": "< 3", "unit": "µM"},
      {"measurement": "KB × 10^5", "result": "3.43 ± 0.25 10^5 M^−1"}
    ]}
  ]
}
